In brackets after ≈: the same amount, converted by molar mass. Where two headings read alike, the source gives them in different places.
Key:
Assay in all cases: MIC, dilution in liquid medium
Assay type in all cases: cell-based
[1] = system: Streptococcus faecalis 99 F 74; conditions: Enterococcus faecalis
Procedure: (§1) The method used was a dilution of a liquid medium where a series of tubes received the same quantity of a sterile nutritive media and increasing doses of the test compounds were placed therein. Then each tube was seeded with a bacterial strain and was incubated for 24 to 48 hours at 37° C. in an oven. The increasing inhibition was determined by transillumination to determine the minimum inhibiting concentration (MIC in […]) and the results are reported in the following Tables.

[2] = system: Streptococcus pyogenes A 561; conditions: Streptococcus pyogenes, read-out: M.I.C.
Procedure: as §1

Providencia Du 48 = conditions: Providencia
Procedure: as §1

Enterobacter cloacae 681 = system: Enterobacter cloacae 681
Procedure: as §1

[3] = system: Escherichia Coli Resistant Tetracycline ATCC 11 303 = UC 1261; conditions: Escherichia coli
Procedure: as §1

[4] = system: Bacillus subtilis ATCC 6 633; conditions: Bacillus subtilis
Procedure: as §1

[5] = system: Salmonella typhimurium 420; conditions: Salmonella enterica, TYPHIMURIUM
Procedure: as §1

[6] = system: Escherichia Coli Exp. TO26 B6; conditions: Escherichia coli
Procedure: as §1

[7] = system: Proteus mirabilis (indol-) A 235; conditions: Proteus mirabilis, read-out: M.I.C.
Procedure: as §1

[8] = system: Staphylococcus aureus ATCC 5 638 Pen-Sensible = UC 1061; conditions: read-out: M.I.C.
Procedure: as §1

[9] = system: Escherichia Coli Resistant Gentamicine, Tobramycine R 55 123 D; conditions: Escherichia coli, read-out: M.I.C.
Procedure: as §1

[10] = system: Klebsiella pneumoniae 2 536 Resistant Gentamicine; conditions: Klebsiella pneumoniae, read-out: M.I.C.
Procedure: as §1

[11] = system: Escherichia Coli Sensible Tetracycline ATCC 9 637 = 1020; conditions: Escherichia coli
Procedure: as §1

[12] = system: Klebsiella pneumoniae Exp. 52 145; conditions: Klebsiella pneumoniae
Procedure: as §1

[13] = system: Streptococcus faecalis 5 432
Procedure: as §1

[14] = system: Serratia Resistant Gentamicine 2 532
Procedure: as §1

[15] = system: Staphylococcus aureus exp. n° 54 146; conditions: Staphylococcus aureus
Procedure: as §1

[16] = system: Staphylococcus aureus UC 1 128 Pen-Resistant; conditions: Staphylococcus aureus
Procedure: as §1

CC(=O)OCC1=C(C(=O)O)N2C(=O)C(NC(=O)/C(=N\O)c3csc(N)n3)C2SC1 (stereo not drawn) [Example 28, syn isomer of 7-[2-(2-amino-4-thiazolyl)-2-hydroxyiminoacetamido]-3-acetoxymethyl-ceph-3-eme-4-carboxylic acid]
MIC ([1]; 99F74, 24 h, read-out: M.I.C.): 10 µg/mL (≈ 22.7 µM) | MIC ([1]; 99F74, 48 h, 48 H): 40 µg/mL (≈ 90.6 µM) | MIC ([2]; A561, 24 h, 24 H): 0.02 µg/mL (≈ 0.0453 µM) | MIC ([2]; A561, 48 h, 48 H): 0.02 µg/mL (≈ 0.0453 µM) | MIC (Providencia Du 48; DU48, 24 h, 24 H): 2 µg/mL (≈ 4.53 µM) | MIC (Providencia Du 48; DU48, 48 h, 48 H): 2 µg/mL (≈ 4.53 µM) | MIC (Enterobacter cloacae 681; Enterobacter cloacae, 681, 24 h): 5 µg/mL (≈ 11.3 µM) | MIC (Enterobacter cloacae 681; Enterobacter cloacae, 681, 48 h, read-out: M.I.C.): 10 µg/mL (≈ 22.7 µM) | MIC ([3]; 24 h): 0.1 µg/mL (≈ 0.227 µM) | MIC ([3]; 48 h): 0.1 µg/mL (≈ 0.227 µM) | MIC ([4]; ATCC6, 24 h, 24 H, read-out: M.I.C.): 0.5 µg/mL (≈ 1.13 µM) | MIC ([4]; ATCC6, 48 h, 48 H): 1 µg/mL (≈ 2.27 µM) | MIC ([5]; 24 h, read-out: M.I.C.): 0.1 µg/mL (≈ 0.227 µM) | MIC ([5]; 48 h): 0.1 µg/mL (≈ 0.227 µM) | MIC ([6]; 24 h): 0.05 µg/mL (≈ 0.113 µM) | MIC ([6]; 48 h): 0.1 µg/mL (≈ 0.227 µM) | MIC ([7]; 24 h): 0.1 µg/mL (≈ 0.227 µM) | MIC ([7]; 48 h): 0.2 µg/mL (≈ 0.453 µM) | MIC ([8]; 24 h): 0.5 µg/mL (≈ 1.13 µM) | MIC ([8]; 48 h): 0.5 µg/mL (≈ 1.13 µM) | MIC ([9]; 24 h): 0.2 µg/mL (≈ 0.453 µM) | MIC ([9]; 48 h): 0.2 µg/mL (≈ 0.453 µM) | MIC ([10]; 24 h): 0.2 µg/mL (≈ 0.453 µM) | MIC ([10]; 48 h): 0.5 µg/mL (≈ 1.13 µM) | MIC ([11]; ATCC9, 24 h, 24 H): 0.05 µg/mL (≈ 0.113 µM) | MIC ([11]; ATCC9, 48 h, 48 H): 0.1 µg/mL (≈ 0.227 µM) | MIC ([12]; EXP.52145, 24 h, 24 H): 0.05 µg/mL (≈ 0.113 µM) | MIC ([12]; EXP.52145, 48 h, 48 H): 0.1 µg/mL (≈ 0.227 µM) | MIC ([13]; Enterococcus faecalis, 5432, 24 h, 24 H): 5 µg/mL (≈ 11.3 µM) | MIC ([13]; Enterococcus faecalis, 5432, 48 h, 48 H): 5 µg/mL (≈ 11.3 µM) | MIC ([14]; 24 h): 5 µg/mL (≈ 11.3 µM) | MIC ([14]; 48 h, read-out: M.I.C.): 10 µg/mL (≈ 22.7 µM) | MIC ([15]; 24 h): 1 µg/mL (≈ 2.27 µM) | MIC ([15]; 48 h): 1 µg/mL (≈ 2.27 µM) | MIC ([16]; UC1, 24 h, 24 H): 1 µg/mL (≈ 2.27 µM) | MIC ([16]; UC1, 48 h, 48 H): 1 µg/mL (≈ 2.27 µM)

From patent publication US4196205A, “3-Acetoxymethyl-7-(iminoacetamido)-cephalosporanic acid derivatives” (priority 1976, dated 1980)
